{
  "source": "patent US9446128B2",
  "about": "(priority 2008, dated 2016)",
  "test_system": "salmonella typimurium TA100",
  "experiment": "Microorganism reverse mutation test, strain TA100",
  "details": "TA100, positive control, 1 μg/plate",
  "protocol": "The principle of this test is to make use of histidine-requiring strains that are not alive without histidine. This test is performed for detecting histidine recovery, which is original strain property, caused by mutagen in a mutant test.\nTo carry out the microorganism reverse mutation test, the test was conducted on test standard strains, salmonella typimurium TA98, TA100, TA1535 and TA1537 as pre-culture. […] The salmonella typimurium TA100 is a test strain upon the reversion of guanine and cytosine in a gene, and the salmonella typimurium TA102 is a test strain upon the reversion of adenine and thymine.\nAs a negative control group, distilled water was used.\nThe respective test materials, positive control group chemicals, distilled water were treated on a plate, and thereafter the number of revertant strains was measured.",
  "note": "Several values for one entry are separate records, joined by “and”; a condition that tells them apart may be missing. Equal values may be shown once.",
  "data": [
    {"smiles": "[N-]=[N+]=[N-]", "note": "[sodium azide]", "values": [
      {"measurement": "Average number of revertant strains", "result": "1,279 and 1,559"},
      {"measurement": "Number of revertant strains", "result": "1,136 and 1,421 and 1,662 and 1,456"}
    ]}
  ]
}
